Laboratory results taken from patent publication US6377057B1, “Classification of biological agents according to the spectral density signature of evoked changes in cellular electric potential” (priority 1999, dated 2002).

System: embryonic chick myocardial cells
Format: cell-based

| SMILES | PSD modulation function of the action potential (additional data, concentration not given) | PSD ratio (PSD after agent ÷ PSD before agent), modulation function of the action potential |
| --- | --- | --- |
| CC[N+](CC)(CC)CC(=O)Nc1c(C)cccc1C.[Br-] [QX-314] | modulation function similar to that of TTX, but with additional attenuation at lower frequencies |  |
| CNC[C@H](O)c1ccc(O)c(O)c1 [Epinephrine] |  | enhanced the power of the AP across a 2 kHz bandwidth with a slight bandpass effect observed |
| NC1=N[C@H](O)[C@H]2[C@H]3O[C@]4(O)O[C@@H]([C@@H](O)[C@@]2(N1)[C@@H]4O)[C@]3(O)CO [Tetrodotoxin] |  | low pass filter effect that clearly reduced the high frequency components of the AP |
